Experimental data from PubChem BioAssay AID248 (DTP/NCI, 2004).
Values joined by “and” are separate entries in the source; they are usually repeats but may differ in a detail not shown here. Equal entries are not always repeated. Inconclusive results and toxic doses are left out.

Test system: L1210 leukemia ip in BDF1 mice, survival T/C
Assay: NCI In Vivo Anticancer Drug Screen. Data for tumor model L1210 Leukemia (intraperitoneal) in B6D2F1 (BDF1) mice
Conditions: endpoint: mean survival time, higher = longer survival
Summary of the method: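 Value reflects the ratio of survival in compound-treated mice to survival in vehicle-treated controls, with both groups carrying the same transplanted tumor.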

[1] = dose: 100.0 mg/kg/injection, schedule: Q01DX001 (ip), vehicle: carboxymethylcellulose (CMC)
[2] = dose: 200.0 mg/kg/injection, schedule: Q01DX001 (ip), vehicle: carboxymethylcellulose (CMC)
[3] = dose: 400.0 mg/kg/injection, schedule: Q01DX001 (ip), vehicle: carboxymethylcellulose (CMC)
[4] = dose: 100.0 mg/kg/injection, schedule: Q01DX001 (ip), vehicle: saline
[5] = dose: 100.0 mg/kg/injection, schedule: Q04DX003 (ip), vehicle: saline
[6] = dose: 200.0 mg/kg/injection, schedule: Q01DX001 (ip), vehicle: saline
[7] = dose: 200.0 mg/kg/injection, schedule: Q04DX003 (ip), vehicle: saline
[8] = dose: 50.0 mg/kg/injection, schedule: Q01DX009 (ip), vehicle: saline
[9] = dose: 100.0 mg/kg/injection, schedule: Q04DX003 (ip), vehicle: saline with Tween-80
[10] = dose: 400.0 mg/kg/injection, schedule: Q04DX003 (ip), vehicle: saline with Tween-80
[11] = dose: 100.0 mg/kg/injection, schedule: Q04DX002 (ip), vehicle: Klucel (hydroxypropylcellulose) (HPC)
[12] = dose: 200.0 mg/kg/injection, schedule: Q04DX002 (ip), vehicle: Klucel (hydroxypropylcellulose) (HPC)
[13] = dose: 400.0 mg/kg/injection, schedule: Q04DX002 (ip), vehicle: Klucel (hydroxypropylcellulose) (HPC)
[14] = dose: 100.0 mg/kg/injection, schedule: Q01DX001 (ip), vehicle: Klucel (hydroxypropylcellulose) (HPC)
[15] = dose: 200.0 mg/kg/injection, schedule: Q01DX001 (ip), vehicle: Klucel (hydroxypropylcellulose) (HPC)
[16] = dose: 400.0 mg/kg/injection, schedule: Q01DX001 (ip), vehicle: Klucel (hydroxypropylcellulose) (HPC)
[17] = dose: 100.0 mg/kg/injection, schedule: Q01DX009 (ip), vehicle: saline with Tween-80
[18] = dose: 200.0 mg/kg/injection, schedule: Q01DX009 (ip), vehicle: saline with Tween-80
[19] = dose: 100.0 mg/kg/injection, schedule: Q01DX009 (ip), vehicle: saline
[20] = dose: 200.0 mg/kg/injection, schedule: Q01DX009 (ip), vehicle: saline
[21] = dose: 400.0 mg/kg/injection, schedule: Q01DX009 (ip), vehicle: saline with Tween-80
[22] = dose: 100.0 mg/kg/injection, schedule: Q01DX009 (ip), vehicle: Klucel (hydroxypropylcellulose) (HPC)
[23] = dose: 100.0 mg/kg/injection, schedule: Q04DX003 (ip), vehicle: Klucel (hydroxypropylcellulose) (HPC)
[24] = dose: 200.0 mg/kg/injection, schedule: Q04DX003 (ip), vehicle: Klucel (hydroxypropylcellulose) (HPC)
[25] = dose: 400.0 mg/kg/injection, schedule: Q04DX003 (ip), vehicle: Klucel (hydroxypropylcellulose) (HPC)

## CC1([N+](=O)[O-])COP(=O)(NCc2ccccc2)OC1 (centres undefined)
dose: 50.0 mg/kg/injection, schedule: Q01DX001 (ip), vehicle: carboxymethylcellulose (CMC)
  T/C: 97 % of control
[1]
  T/C: 107 % of control
[2]
  T/C: 109 % of control
[3]
  T/C: 97 % of control

## N[n+]1cccc2ccccc21
[4]
  T/C: 93 % of control
[5]
  T/C: 108 % of control
[6]
  T/C: 108 % of control
[7]
  T/C: 110 % of control

## C=CC[N+](C)(CC=C)CC[N+](C)(CC=C)CC=C
dose: 50.0 mg/kg/injection, schedule: Q01DX009 (ip), vehicle: water
  T/C: 93 % of control
dose: 100.0 mg/kg/injection, schedule: Q01DX009 (ip), vehicle: water
  T/C: 95 % of control
dose: 100.0 mg/kg/injection, schedule: Q04DX003 (ip), vehicle: water
  T/C: 94 % of control
dose: 200.0 mg/kg/injection, schedule: Q04DX003 (ip), vehicle: water
  T/C: 96 % of control

## Nc1ncnc2c1c(C1=NCCN1)cn2C1OC(CO)C(O)C1O (centres undefined)
dose: 25.0 mg/kg/injection, schedule: Q01DX009 (ip), vehicle: saline
  T/C: 179 % of control
[8]
  T/C: 155 % of control and 230 % of control
dose: 200.0 mg/kg/injection, schedule: Q01DX005 (ip), vehicle: saline
  T/C: 105 % of control

## N#Cc1ccc(N=S=O)cc1
dose: 100.0 mg/kg/injection, schedule: Q04DX002 (ip), vehicle: saline with Tween-80
  T/C: 105 % of control
dose: 200.0 mg/kg/injection, schedule: Q04DX002 (ip), vehicle: saline with Tween-80
  T/C: 112 % of control

## Nc1ccc(CCc2ccc(Cl)cc2S(=O)(=O)F)c(Cl)c1
dose: 100.0 mg/kg/injection, schedule: Q01DX009 (ip), vehicle: saline sonified
  T/C: 97 % of control
dose: 100.0 mg/kg/injection, schedule: Q04DX003 (ip), vehicle: saline sonified
  T/C: 100 % of control
dose: 200.0 mg/kg/injection, schedule: Q01DX009 (ip), vehicle: saline sonified
  T/C: 92 % of control
dose: 200.0 mg/kg/injection, schedule: Q04DX003 (ip), vehicle: saline sonified
  T/C: 100 % of control
dose: 400.0 mg/kg/injection, schedule: Q01DX009 (ip), vehicle: saline sonified
  T/C: 98 % of control
dose: 400.0 mg/kg/injection, schedule: Q04DX003 (ip), vehicle: saline sonified
  T/C: 96 % of control

## COC(=O)C1CCC2(C)C=CC(=O)C(C)C2C1 (centres undefined)
dose: 75.0 mg/kg/injection, schedule: Q04DX003 (ip), vehicle: saline
  T/C: 100 % of control
dose: 150.0 mg/kg/injection, schedule: Q04DX003 (ip), vehicle: saline
  T/C: 100 % of control
dose: 300.0 mg/kg/injection, schedule: Q04DX003 (ip), vehicle: saline
  T/C: 96 % of control

## CCCCN1C(=O)c2cccnc2C1=O
dose: 75.0 mg/kg/injection, schedule: Q04DX003 (ip), vehicle: Klucel (hydroxypropylcellulose) (HPC)
  T/C: 102 % of control
dose: 100.0 mg/kg/injection, schedule: Q01DX001 (ip), vehicle: saline with Tween-80
  T/C: 103 % of control
[9]
  T/C: 103 % of control
dose: 150.0 mg/kg/injection, schedule: Q04DX003 (ip), vehicle: Klucel (hydroxypropylcellulose) (HPC)
  T/C: 96 % of control
dose: 200.0 mg/kg/injection, schedule: Q01DX001 (ip), vehicle: saline with Tween-80
  T/C: 97 % of control
dose: 300.0 mg/kg/injection, schedule: Q04DX003 (ip), vehicle: Klucel (hydroxypropylcellulose) (HPC)
  T/C: 95 % of control
dose: 400.0 mg/kg/injection, schedule: Q01DX001 (ip), vehicle: saline with Tween-80
  T/C: 93 % of control
[10]
  T/C: 95 % of control

## COc1cc2c(c(OC)c1OC)CCc1cnoc1-2
[11]
  T/C: 97 % of control
[12]
  T/C: 112 % of control
[13]
  T/C: 91 % of control

## CN(C)C(=O)N1CN(c2ccccc2)C2(CCN(CC3COc4ccccc4O3)CC2)C1=O (centres undefined)
[14]
  T/C: 101 % of control
[15]
  T/C: 97 % of control
[16]
  T/C: 106 % of control

## CCCCCC#CC(=O)OCC
[17]
  T/C: 100 % of control
[18]
  T/C: 89 % of control

## O=C(O)c1cc(F)ccc1F
[11]
  T/C: 97 % of control
[12]
  T/C: 108 % of control

## N#C/C(=C(/Cc1ccc(F)cc1)NP(=O)(c1ccccc1)c1ccccc1)c1ccc(F)cc1
dose: 100.0 mg/kg/injection, schedule: Q01DX001 (ip), vehicle: steriod suspending solution
  T/C: 101 % of control
dose: 200.0 mg/kg/injection, schedule: Q01DX001 (ip), vehicle: steriod suspending solution
  T/C: 90 % of control

## CC12CC3CC(C1)CC(C(=O)O)(C3)C2
[19]
  T/C: 110 % of control
[5]
  T/C: 97 % of control
[20]
  T/C: 100 % of control
[7]
  T/C: 97 % of control
dose: 400.0 mg/kg/injection, schedule: Q04DX003 (ip), vehicle: saline
  T/C: 101 % of control

## CCCNC(=O)Nc1cccc(C(F)(F)F)c1
[17]
  T/C: 100 % of control
[9]
  T/C: 100 % of control
[18]
  T/C: 97 % of control
dose: 200.0 mg/kg/injection, schedule: Q04DX003 (ip), vehicle: saline with Tween-80
  T/C: 97 % of control
[21]
  T/C: 88 % of control
[10]
  T/C: 106 % of control

## Cc1ccc(Cl)cc1NC(=O)Oc1ccc(Cl)cc1C
dose: 12.5 mg/kg/injection, schedule: Q01DX009 (ip), vehicle: Klucel (hydroxypropylcellulose) (HPC)
  T/C: 95 % of control
dose: 25.0 mg/kg/injection, schedule: Q01DX009 (ip), vehicle: Klucel (hydroxypropylcellulose) (HPC)
  T/C: 95 % of control
dose: 50.0 mg/kg/injection, schedule: Q01DX009 (ip), vehicle: Klucel (hydroxypropylcellulose) (HPC)
  T/C: 97 % of control
[22]
  T/C: 96 % of control

## CCOC(=O)c1ccc(NC(=O)Nc2cc(Cl)c(OC)cc2OC)cc1
[22]
  T/C: 98 % of control
dose: 200.0 mg/kg/injection, schedule: Q01DX009 (ip), vehicle: Klucel (hydroxypropylcellulose) (HPC)
  T/C: 95 % of control
dose: 400.0 mg/kg/injection, schedule: Q01DX009 (ip), vehicle: Klucel (hydroxypropylcellulose) (HPC)
  T/C: 105 % of control

## O=C1C(c2ccccc2)=S=C2Sc3ccccc3N12
[22]
  T/C: 90 % of control

## CN(C)NP(=O)(c1ccccc1)c1ccccc1
[4]
  T/C: 98 % of control
[6]
  T/C: 95 % of control
dose: 400.0 mg/kg/injection, schedule: Q01DX001 (ip), vehicle: saline
  T/C: 97 % of control

## CC(C)C(NCCNC(C(C)C)C(C)C)C(C)C
[8]
  T/C: 106 % of control
[19]
  T/C: 102 % of control
[20]
  T/C: 106 % of control

## Cc1cc(C)c(NC(=S)NC(=O)c2ccco2)c(C)c1
[17]
  T/C: 97 % of control
[23]
  T/C: 98 % of control
[18]
  T/C: 93 % of control
[24]
  T/C: 96 % of control
[21]
  T/C: 95 % of control
[25]
  T/C: 102 % of control

## C#CCC1CCCC/C1=N\Nc1ccc([N+](=O)[O-])cc1[N+](=O)[O-] (centres undefined)
[11]
  T/C: 96 % of control
[12]
  T/C: 103 % of control
[13]
  T/C: 92 % of control

## Cc1ccccc1N=Cc1cc(Cl)ccc1O
[14]
  T/C: 97 % of control
[23]
  T/C: 88 % of control
[15]
  T/C: 95 % of control
[24]
  T/C: 97 % of control
[16]
  T/C: 93 % of control
[25]
  T/C: 101 % of control

## CC1CCCC(C)N1C(=O)Nc1cccc(C(F)(F)F)c1 (centres undefined)
dose: 100.0 mg/kg/injection, schedule: Q01DX009 (ip), vehicle: gum acacia
  T/C: 108 % of control
dose: 200.0 mg/kg/injection, schedule: Q01DX009 (ip), vehicle: gum acacia
  T/C: 103 % of control

## CCN(CC)c1ccc(N=Cc2cc(=O)n(C)c3ccccc23)cc1
[1]
  T/C: 101 % of control
[2]
  T/C: 90 % of control
[3]
  T/C: 88 % of control

## Cc1cc(C)c(S(=O)(=O)c2c(C)cc(C)cc2C)c(C)c1
dose: 25.0 mg/kg/injection, schedule: Q04DX003 (ip), vehicle: Klucel (hydroxypropylcellulose) (HPC)
  T/C: 100 % of control
dose: 50.0 mg/kg/injection, schedule: Q04DX003 (ip), vehicle: Klucel (hydroxypropylcellulose) (HPC)
  T/C: 93 % of control
[23]
  T/C: 88 % of control
